Data set [1] can be described thus: Displacement of dansyl-polymyxin from LPS. It counts as binding, P. aeruginosa. To be noted: read-out: LPS binding affinity: peptide concentration to displace 50% of dansyl-polymyxin B from LPS; Tables 1, 4, 7. The procedure, abridged: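 Peptides titrated into 3 μg/mL P. aeruginosa LPS with 2.5 μM dansyl-polymyxin (~90% site saturation) in 5 mM sodium HEPES, pH 7.0; fluorescence decrease recorded. I50 (50% probe displacement) taken from the x-intercept of a double-reciprocal plot of percent inhibition versus inhibitor concentration.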

Another data set has as its system S. typhinurium C587. It is filed as cell-based, Salmonella typhinurium. Summed up: (§1)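 Antimicrobial activity is measured by a liquid-broth assay in LB at 37 °C overnight, starting from 5×10^5 CFU/mL. Values are minimal inhibitory concentrations, i.e. the lowest concentration that stops growth.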
A further data set concerns S. typhinurium C610. It is filed as cell-based, Salmonella typhinurium. Summed up:
as §1

The next data set relates to P. aeruginosa H188. It is filed as cell-based, Pseudomonas aeruginosa. The following applies: for Minimum Inhibitory Concentration (activity): H188. The procedure, abridged:
as §1

Another data set has as its system E. coli UB1005. It counts as cell-based, Escherichia coli. To be noted: for Minimum Inhibitory Concentration (activity): UB1005. Summed up:
as §1

The next data set has as its system E. coli SC9251. Nature of the data set: MIC, liquid-broth microtitre dilution. It counts as cell-based, Escherichia coli. To be noted: unit from Table 10. The text has this:
(§2) The following bacterial strains were utilized: Escherichia coli UB1005 (wt) and its antibiotic supersusceptible derivative DC2 (Clark, 1984); Excherichia coli SC9251 and its polymixin B rasistant mutant pmrA SC9252 (Peterson, et al., 1987) Pseudomonas aeruginosa H187 (wt) (Angus, et al., 1987) and its antibiotic-sensitive derivative H188 (Zimmerman, W, Antimicrob. Agents Chemother. 18: 94-100, 1980); methicillin sensitive Staphylococcus aureus K147 (Kreiswirth, et al., 1983); Staphylococcus aureus SAP0017, a methicillin resistant clinical isolate from Dr. A. Chow (University of British Columia); Bacillus subtilis, an environmental wt lab strain. Enterococcus faecalis are ATCC 29212 cells and Staphylococcus epidermidis was a clinical isolate from Dr. D. Speert (University of British Columbia). Antifungal activity was tested using a clinical lab isolate of Candida albicans. Salmonella typhinurium C57 and C610 (Fields, P.I., et al., Science 243: 1059-1062 (1989) Corynebacterium xerosis was an environmental isolate (University of British Columbia).
(§3) It is now apparent that agar-based assays severely underestimate antifungal activity as well as activity against gram negative microorganisms (Kondejewski, et al., 1996). Consequently, in the studies reported herein, a liquid-broth method was used to measure the antibiotic properties of the peptides. […] Briefly, cells were grown overnight at 37° C. in LB and diluted in the same medium. Serial dilutions of antibiotics were added to the microtitre plates in a volume of 100 μL followed by 10 μL of bacteria to give a final inoculum of 5×10^5 CFU/mL. Plates were incubated at 37° C. overnight and MICs determined as the lowest antibiotic concentration that inhibited growth.

The next data set relates to E. coli SC9252. Nature of the data set: MIC, liquid-broth microtitre dilution. The following applies: unit from Table 10. It is filed as cell-based, Escherichia coli.
Description: as §2, §3

For data set [2], the system named is gram negative microorganisms. It counts as cell-based.
Description: as §2, §3
The results from antimicrobial and hemolytic assays are combined to provide a “Therapeutic Index” (TI) for each peptide with respect to individual microorganisms. As reported herein, the TI is calculated as the hemolytic activity divided by the antimicrobial activity. The TI thus is a measure of specificity of the particular peptide for microbial membranes as opposed to human blood cell membranes. In the present studies, antimicrobial activities are reported as minimum inhibitory concentrations (MIC)—the lowest concentration of peptide (μg/ml) found to inhibit growth of the particular microbe. Hemolytic activity is reported as the concentration of peptide that effected complete lysis of blood cells after four hours. Thus, in the context of the present invention high TI values indicate microbial specificity and relative lack of toxicity.

For a further data set, the system named is E. coli DC2. It is filed as cell-based, Escherichia coli. The following applies: for Minimum Inhibitory Concentration (activity): DC2. The procedure, abridged:
(§4)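 MIC read-out, μg/ml, lowest peptide concentration with no growth after overnight incubation at 37 °C in LB liquid broth. Inoculum 5×10^5 CFU/mL from overnight cultures. Therapeutic index = concentration giving complete blood-cell lysis at 4 h divided by MIC.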

A further data set relates to human erythrocytes. Nature of the data set: Hemolytic activity. It counts as cell-based. The procedure:
Serial dilutions of the peptides in saline were prepared in round bottom microtitre plates using 100 μL volumes. Red blood cells were diluted with saline to 1/25 packed volume of cells and 50 μL added to each well. Plates were incubated with rocking at 37° C., and the concentration required for complete lysis determined visually after 4 h.

Another data set deals with C. Albicans. It is filed as cell-based, Candida albicans. Summed up:
(§5)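 Liquid-broth microdilution: overnight LB cultures diluted and added to serial peptide dilutions at final 5×10^5 CFU/mL, incubated overnight at 37 °C. MIC is the lowest concentration inhibiting growth; C. albicans a clinical isolate, S. epidermidis clinical, C. xerosis environmental.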

For another data set, the system named is P. aeruginosa H187. It is filed as cell-based, Pseudomonas aeruginosa. To be noted: for Minimum Inhibitory Concentration (activity): H187. Summed up: as §4
The next data set deals with B. subtilis. It counts as cell-based, Bacillus subtilis. Summed up: as §5
In a further data set the test system is S. aureus K147. It counts as cell-based, Staphylococcus aureus. Summed up:
as §4

Another data set deals with S. aureus SAP0017. It counts as cell-based, Staphylococcus aureus. Summed up: as §4
In a further data set the test system is E. faecalis. It is filed as cell-based, Enterococcus faecalis. Summed up: as §1
The test system of another data set is S. epidermidis. It counts as cell-based, Staphylococcus epidermidis. The procedure, abridged: as §5
The next data set concerns C. xeroses. It counts as cell-based, Corynebacterium xerosis. Summed up: as §5

Like-named read-outs stand apart in the source and are kept apart here. Where a SMILES comes first, the peptide text is derived from it. [ ]: non-standard residue; d: D form. Orn = NCCC[C@H](N)C(=O)O

Consider `CC(C)C[C@@H]1NC(=O)[C@H](CCCN)NC(=O)[C@H](C(C)C)NC(=O)[C@@H]2CCCN2C(=O)[C@@H](Cc2ccccc2)NC(=O)[C@H](CC(C)C)NC(=O)[C@H](CCCN)NC(=O)[C@H](C(C)C)NC(=O)[C@@H]2CCCN2C(=O)[C@@H](Cc2ccccc2)NC1=O` [GS, cyclo(Val-Orn-Leu-D-Phe-Pro)2, reference compound] (cyclo(V[Orn]L[dF]PV[Orn]L[dF]P)), for which the IC50 in data set [1] was 295 µM. Further, the “Minimum Inhibitory Concentration (activity)” value in the data set with S. typhinurium C587 is 18 µg/mL; with S. typhinurium C610 it was 9 µg/mL; with P. aeruginosa H188, 6.2 µg/mL; in the data set with E. coli UB1005, 9 µg/mL; in the data set with E. coli DC2 it was 3.1 µg/mL; with C. Albicans (C. Albicans) it was 6.2 µg/mL. Also, in the data set with P. aeruginosa H187, the “Minimum Inhibitory Concentration (activity)” value worked out at 25 µg/mL. The “Antibiotic activity (Table 11, ring analogs)” value in the data set with P. aeruginosa H188 (P. aeruginosa H188, unit from Table 10) is recorded as 16 μg/ml; in the data set with E. coli UB1005 (E. coli UB1005, unit from Table 10), 19 μg/ml; in the data set with E. coli SC9251 it was 13 μg/ml; in the data set with E. coli SC9252, 5 μg/ml; with E. coli DC2 (E. coli DC2, unit from Table 10), 9 μg/ml; with P. aeruginosa H187 (P. aeruginosa H187, unit from Table 10) it was 25 μg/ml. In [2], the “MIC against gram-negative organisms, particularly E. coli and P. aeruginosa” value is 3 to 12.5 µg/mL. Moreover, the “Hemolytic activity: peptide concentration for 100% lysis of human erythrocytes” value in the data set on human erythrocytes is 12.5 µg/mL.
In the case of `C[C@@H]1NC(=O)[C@H](CCCCN)NC(=O)[C@H](C)NC(=O)[C@@H]2CCCN2C(=O)[C@@H](Cc2ccc(O)cc2)NC(=O)[C@H](C)NC(=O)[C@@H](CCCCN)NC(=O)[C@H](C)NC(=O)[C@H](CCCCN)NC(=O)[C@H](C)NC(=O)[C@@H]2CCCN2C(=O)[C@@H](Cc2ccc(O)cc2)NC(=O)[C@H](C)NC(=O)[C@H](CCCCN)NC1=O` [V3L3/A6], the IC50 in [1] was determined as 291 µM. Besides, the “Minimum Inhibitory Concentration (activity)” value with S. typhinurium C587 is above 200 µg/mL; in the data set on S. typhinurium C610 it was above 200 µg/mL; in the data set with P. aeruginosa H188, 75 µg/mL; in the data set on E. coli UB1005 it was above 200 µg/mL; in the data set with B. subtilis it was above 200 µg/mL; with S. aureus K147, above 200 µg/mL. The “Minimum Inhibitory Concentration (activity)” value in the data set with S. aureus SAP0017 was above 200 µg/mL; in the data set with E. coli DC2, above 200 µg/mL; with E. faecalis, above 200 µg/mL; with C. Albicans, 400 µg/mL; with S. epidermidis it was above 200 µg/mL; with C. xeroses, 200 µg/mL. Further, in the data set on P. aeruginosa H187, the “Minimum Inhibitory Concentration (activity)” value is above 200 µg/mL. The “Hemolytic activity: peptide concentration for 100% lysis of human erythrocytes” value in the data set with human erythrocytes is above 800 µg/mL.
On to `CC(C)C[C@@H]1NC(=O)[C@H](CCCCN)NC(=O)[C@H](CC(C)C)NC(=O)[C@@H]2CCCN2C(=O)[C@@H](Cc2ccccc2)NC(=O)[C@H](CC(C)C)NC(=O)[C@@H](CCCCN)NC(=O)[C@H](CC(C)C)NC(=O)[C@H](CCCCN)NC(=O)[C@H](CC(C)C)NC(=O)[C@@H]2CCCN2C(=O)[C@@H](Cc2ccccc2)NC(=O)[C@H](CC(C)C)NC(=O)[C@H](CCCCN)NC1=O` [Y2/F2 V3/L3], for which the IC50 in [1] turned out to be 25 µM. In addition, the “Minimum Inhibitory Concentration (activity)” value in the data set with S. typhinurium C587 worked out at 35 µg/mL; with S. typhinurium C610, 12.5 µg/mL; with P. aeruginosa H188, 3.1 µg/mL; in the data set with E. coli UB1005, 9 µg/mL; in the data set on B. subtilis, 6.2 µg/mL; in the data set with S. aureus K147 it was 9 µg/mL. Besides, the “Minimum Inhibitory Concentration (activity)” value worked out at 9 µg/mL in the data set with S. aureus SAP0017; 2 µg/mL in the data set with E. coli DC2; 1.5 µg/mL in the data set on E. faecalis; 3.1 µg/mL with C. Albicans; 2 µg/mL in the data set on S. epidermidis; 1 µg/mL in the data set with C. xeroses. The “Minimum Inhibitory Concentration (activity)” value with P. aeruginosa H187 worked out at 12.5 µg/mL. Further, the “Hemolytic activity: peptide concentration for 100% lysis of human erythrocytes” value in the data set on human erythrocytes (Tables 1, 4, 7) turned out to be 12.5 µg/mL.
In the case of `CC(C)C[C@@H]1NC(=O)[C@H](CCCCN)NC(=O)[C@H](C(C)C)NC(=O)[C@@H]2CCCN2C(=O)[C@@H](Cc2ccccc2)NC(=O)[C@H](CC(C)C)NC(=O)[C@H](CCCCN)NC(=O)[C@H](C(C)C)NC(=O)[C@H](CCCCN)NC(=O)[C@H](CC(C)C)NC(=O)[C@@H]2CCCN2C(=O)[C@@H](Cc2ccccc2)NC(=O)[C@H](C(C)C)NC(=O)[C@@H](CCCCN)NC1=O` [Y2/F2], the IC50 in data set [1] turned out to be 59 µM. Besides, the “Minimum Inhibitory Concentration (activity)” value in the data set with S. typhinurium C587 is 9 µg/mL; in the data set with S. typhinurium C610, 3.1 µg/mL; with P. aeruginosa H188, 3.1 µg/mL; with E. coli UB1005 it was 6.2 µg/mL; in the data set on B. subtilis, 12.5 µg/mL; in the data set on S. aureus K147, 12.5 µg/mL. In addition, the “Minimum Inhibitory Concentration (activity)” value was determined as 9 µg/mL in the data set with S. aureus SAP0017; 1.5 µg/mL with E. coli DC2; 6.2 µg/mL in the data set on E. faecalis; 3.1 µg/mL with C. Albicans; 3.1 µg/mL in the data set with S. epidermidis; 1.5 µg/mL in the data set on C. xeroses. For the same compound, in the data set on P. aeruginosa H187, the “Minimum Inhibitory Concentration (activity)” value was found to be 17 µg/mL. Besides, the “Hemolytic activity: peptide concentration for 100% lysis of human erythrocytes” value in the data set on human erythrocytes was found to be 40 µg/mL.

The values are drawn from US6358921B1, “Antimicrobial peptide compositions and method” (priority 1996, dated 2002).
